Common to all, as to assay: NCI-60 cell line screen, 48 h
Assay [1] concerns A498 renal.
The test system of assay [2] is A549 NSCLC.
The subject of assay [3] is CCRF-CEM leukemia.
For assay [4], the system named is HCC-2998 colon.
Assay [5] concerns KM12 colon.
The test system of assay [6] is NCI-H226 lung.
In assay [7] the test system is NCI-H460 lung.
Assay [8] deals with NCI/ADR-RES ovarian.
Assay [9] deals with RPMI-8226 leukemia.
The subject of assay [10] is SF-295 CNS.
In assay [11] the test system is SF-539 CNS.
For assay [12], the system named is SK-MEL-2 melanoma.
Assay [13] relates to SK-OV-3 ovarian.
The subject of assay [14] is SN12C renal.
Assay [15] deals with SR leukemia.
Assay [16] concerns U251 CNS.
The test system of assay [17] is EKVX NSCLC.

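Grown in 96-well plates, cells were treated for 48 hours with each compound at five concentrations. Insufficient inhibition: endpoint recorded as highest concentration tested. At the TGI there is no net growth.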 A value given as a limit tells only on which side of the number the result lay.

As to `COc1ccc(C2CC(c3ccc4ccccc4c3O)=NN2C(C)=O)cc1OC` (stereo unspecified), the TGI in assay [1], in assay [2], in assay [3], in assay [4], in assay [5] and in assay [6] was more than 100 µM each time. Moreover, the TGI in assay [7], in [8], in assay [9], in [10], in assay [11] and in assay [12] was more than 100 µM throughout. For the same molecule, the TGI in [13], in assay [14], in assay [15] and in assay [16] was more than 100 µM throughout.
As for `Cc1ccsc1C(=O)C(CC(=O)c1cccs1)c1ccsc1` (stereo unspecified), the TGI in [1], in assay [2], in [3], in assay [17], in [4] and in [5] was more than 100 µM each time. For the same molecule, the TGI in assay [6], in [7], in assay [8], in assay [10], in assay [11] and in assay [13] was more than 100 µM throughout. For the same molecule, the TGI in assay [14], in assay [15] and in [16] was more than 100 µM in each case.
As to `CC[C@H](C)C1=C(O)[N@+]2([O-])Oc3ccc(-c4c(O)c(O)c(-c5ccc(OC(C)=O)cc5)c(OC(C)=O)c4OC(C)=O)cc3O[C@]2([C@@H](C)CC)C(=O)N1O`, the TGI in [1] was more than 50 µM; in assay [2] it was more than 50 µM; in assay [3], 23.8 µM; in [17], more than 50 µM; in assay [4], 24.5 µM; in assay [5] it was more than 50 µM. The TGI was more than 50 µM in assay [7]; more than 50 µM in assay [8]; 42 µM in assay [9]; more than 50 µM in assay [10]; more than 50 µM in assay [11]; more than 50 µM in assay [12]. For the same molecule, the TGI was more than 50 µM in assay [13], more than 50 µM in [14], 33 µM in [15] and more than 50 µM in [16].
`CN1C(=O)c2c(c3c4ccccc4n(C4OC(CO)C(O)C(O)C4O)c3c3[nH]c4ccccc4c23)C1=O` (stereo unspecified): the TGI in assay [1] is 3.26 µM; in [2] it was 29.6 µM; in assay [3] it was 1.68 µM; in assay [17], 9.09 µM; in [4] it was 7.72 µM; in [5], 11.3 µM. Moreover, the TGI in assay [7] was 12.1 µM; in assay [8] it was 49.9 µM; in assay [9], 59.8 µM; in assay [10], 10.9 µM; in [11], 4.7 µM; in [12], 4.72 µM. Also, the TGI came out at 10.9 µM in assay [13], 9.71 µM in assay [14], 1.2 µM in assay [15] and 10.8 µM in assay [16].
Consider `CCOC(=O)CCC(NC(=O)c1ccc(Nc2nc3ccccc3n3cccc23)cc1)C(=O)OCC` (stereo unspecified), for which the TGI in assay [1], in assay [2], in assay [3], in assay [17], in assay [4] and in assay [5] was more than 100 µM in each case. In addition, the TGI in assay [7] is more than 100 µM; in [8] it was 48.5 µM; in [9], more than 100 µM; in [10] it was 71.1 µM; in assay [11], 34.6 µM; in [12], 39.7 µM. Also, the TGI is 50.1 µM in assay [13], more than 100 µM in assay [15] and 62.3 µM in assay [16].
Turning to `CC(C)(C)OC(=O)NC(Cc1ccc(OCc2ccccc2)cn1)C(=O)NCc1ccccc1` (stereo unspecified), the TGI in assay [1] was more than 100 µM; in [2], more than 100 µM; in [3], 43.5 µM; in [17], 99.3 µM; in assay [4], more than 100 µM; in [5] it was 97.8 µM. Further, the TGI in assay [7] is 69.7 µM; in assay [8], 48.7 µM; in [9], 44.9 µM; in assay [10], 51.6 µM; in [12] it was 35.7 µM; in [13] it was 51.6 µM. Also, the values for the TGI in assay [14], in [15] and in assay [16] were 64.6 µM, 30.5 µM and more than 100 µM, respectively.
For `O=C1CSC(c2ccc(Cl)cc2)N1c1ccc(-c2ccc(-n3c(-c4ccccc4)nc4ccccc4c3=O)cc2)cc1` (stereo unspecified), the TGI in [1], in [2], in assay [3], in [17], in assay [4] and in assay [5] was more than 100 µM each time. Also, the TGI in assay [7] was more than 100 µM; in assay [8] it was 82.5 µM; in [9] it was more than 100 µM; in [10] it was more than 100 µM; in assay [11] it was more than 100 µM; in assay [12], more than 100 µM. The TGI in assay [13] was more than 100 µM; in [14], more than 100 µM; in assay [15], more than 100 µM; in assay [16] it was 85.8 µM.
Regarding `COc1cc2c(cc1OC)C1CCc3ccccc3CN1CC2` (stereo unspecified), the TGI in assay [1], in assay [2], in assay [3], in assay [17], in [4] and in assay [5] was more than 100 µM throughout. The TGI in assay [6], in [7], in assay [8], in [10], in assay [11] and in assay [12] was more than 100 µM each time. In addition, the TGI in assay [13], in assay [14], in assay [15] and in [16] was more than 100 µM throughout.
In the case of `Cn1c(=O)c2c(nc(N)n2C2OC(CO)C(O)C2O)n(C)c1=O` (stereo unspecified), the TGI in assay [1], in assay [2], in assay [3], in [17], in [4] and in assay [5] was more than 100 µM each time. Moreover, the TGI in [6], in assay [7], in assay [8], in assay [9], in assay [10] and in [11] was more than 100 µM in each case. Moreover, the TGI in assay [13], in [14], in assay [15] and in assay [16] was more than 100 µM throughout.

Values taken from PubChem BioAssay (NCI).
